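Compound exposure: 48 hours, 5 concentrations, 96-well plates. TGI: concentration producing complete growth inhibition.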
How the values were obtained:
Assay in all cases: NCI-60 cell line screen, 48 h
A498 renal = test system: A498 renal
A549 NSCLC = test system: A549 NSCLC
ACHN renal = test system: ACHN renal
BT-549 breast = test system: BT-549 breast
CAKI-1 renal = test system: CAKI-1 renal
CCRF-CEM leukemia = test system: CCRF-CEM leukemia
COLO 205 colon = test system: COLO 205 colon
DU-145 prostate = test system: DU-145 prostate
HCC-2998 colon = test system: HCC-2998 colon
HCT-116 colon = test system: HCT-116 colon
HCT-15 colon = test system: HCT-15 colon
HOP-62 NSCLC = test system: HOP-62 NSCLC
HOP-92 NSCLC = test system: HOP-92 NSCLC
HS 578T breast = test system: HS 578T breast
HT29 colon = test system: HT29 colon
IGROV1 ovarian = test system: IGROV1 ovarian
K-562 leukemia = test system: K-562 leukemia
KM12 colon = test system: KM12 colon
M14 melanoma = test system: M14 melanoma
MALME-3M melanoma = test system: MALME-3M melanoma
MCF7 breast = test system: MCF7 breast
MDA-MB-231 breast = test system: MDA-MB-231 breast
MDA-MB-435 = test system: MDA-MB-435
MDA-N = test system: MDA-N
MOLT-4 leukemia = test system: MOLT-4 leukemia
NCI-H226 lung = test system: NCI-H226 lung
NCI-H23 lung = test system: NCI-H23 lung
NCI-H460 lung = test system: NCI-H460 lung
NCI-H522 lung = test system: NCI-H522 lung
NCI/ADR-RES ovarian = test system: NCI/ADR-RES ovarian
OVCAR-3 ovarian = test system: OVCAR-3 ovarian
OVCAR-4 ovarian = test system: OVCAR-4 ovarian
OVCAR-5 ovarian = test system: OVCAR-5 ovarian
OVCAR-8 ovarian = test system: OVCAR-8 ovarian
PC-3 prostate = test system: PC-3 prostate
RXF 393 renal = test system: RXF 393 renal
SF-268 CNS = test system: SF-268 CNS
SF-295 CNS = test system: SF-295 CNS
SF-539 CNS = test system: SF-539 CNS
SK-MEL-28 melanoma = test system: SK-MEL-28 melanoma
SK-MEL-5 melanoma = test system: SK-MEL-5 melanoma
SK-OV-3 ovarian = test system: SK-OV-3 ovarian
SN12C renal = test system: SN12C renal
SNB-19 CNS = test system: SNB-19 CNS
SNB-75 CNS = test system: SNB-75 CNS
SR leukemia = test system: SR leukemia
SW-620 colon = test system: SW-620 colon
T-47D breast = test system: T-47D breast
TK-10 renal = test system: TK-10 renal
U251 CNS = test system: U251 CNS
UACC-257 melanoma = test system: UACC-257 melanoma
UACC-62 melanoma = test system: UACC-62 melanoma
UO-31 renal = test system: UO-31 renal
786-0 renal = test system: 786-0 renal
EKVX NSCLC = test system: EKVX NSCLC
HL-60(TB) leukemia = test system: HL-60(TB) leukemia
LOX IMVI melanoma = test system: LOX IMVI melanoma
SK-MEL-2 melanoma = test system: SK-MEL-2 melanoma

With Cn1c(=O)c(-c2ccccc2)c(N=[N+]=[N-])c2ccccc21 the TGI (A498 renal) was over 100 µM, the TGI (A549 NSCLC) was over 100 µM and the TGI (ACHN renal) was 96.3 µM. For the same compound, the TGI (BT-549 breast) was over 100 µM, the TGI (CAKI-1 renal) was over 100 µM and the TGI (CCRF-CEM leukemia) was over 100 µM. It also gave a TGI (COLO 205 colon) of over 100 µM, a TGI (DU-145 prostate) of over 100 µM and a TGI (HCC-2998 colon) of 47 µM. The TGI (HCT-116 colon) was over 100 µM, the TGI (HCT-15 colon) was over 100 µM and the TGI (HOP-62 NSCLC) was over 100 µM. The TGI (HOP-92 NSCLC) was over 100 µM, the TGI (HS 578T breast) was over 100 µM and the TGI (HT29 colon) was 49.9 µM. For the same compound, the TGI (IGROV1 ovarian) was over 100 µM, the TGI (K-562 leukemia) was over 100 µM and the TGI (KM12 colon) was over 100 µM. For the same compound, the TGI (M14 melanoma) was over 100 µM, the TGI (MALME-3M melanoma) was 87.8 µM and the TGI (MCF7 breast) was over 100 µM. It also gave a TGI (MDA-MB-231 breast) of over 100 µM, a TGI (MDA-MB-435) of over 100 µM and a TGI (MDA-N) of over 100 µM. For the same compound, the TGI (MOLT-4 leukemia) was 85.4 µM, the TGI (NCI-H226 lung) was over 100 µM and the TGI (NCI-H23 lung) was over 100 µM. It also gave a TGI (NCI-H460 lung) of over 100 µM, a TGI (NCI-H522 lung) of 75.5 µM and a TGI (NCI/ADR-RES ovarian) of over 100 µM. For the same compound, the TGI (OVCAR-3 ovarian) was over 100 µM, the TGI (OVCAR-4 ovarian) was over 100 µM and the TGI (OVCAR-5 ovarian) was over 100 µM. The TGI (OVCAR-8 ovarian) was over 100 µM, the TGI (PC-3 prostate) was over 100 µM and the TGI (RXF 393 renal) was over 100 µM. For the same compound, the TGI (SF-268 CNS) was over 100 µM, the TGI (SF-295 CNS) was over 100 µM and the TGI (SF-539 CNS) was over 100 µM. It also gave a TGI (SK-MEL-28 melanoma) of over 100 µM, a TGI (SK-MEL-5 melanoma) of over 100 µM and a TGI (SK-OV-3 ovarian) of over 100 µM. The TGI (SN12C renal) was over 100 µM, the TGI (SNB-19 CNS) was over 100 µM and the TGI (SNB-75 CNS) was over 100 µM. The TGI (SR leukemia) was 75.4 µM, the TGI (SW-620 colon) was over 100 µM and the TGI (T-47D breast) was over 100 µM. For the same compound, the TGI (TK-10 renal) was over 100 µM, the TGI (U251 CNS) was over 100 µM and the TGI (UACC-257 melanoma) was over 100 µM. It also gave a TGI (UACC-62 melanoma) of over 100 µM and a TGI (UO-31 renal) of over 100 µM.
For CC(=O)c1[nH]c(NCc2ccccc2)c(C(=S)Nc2ccccc2)c1N, the TGI (786-0 renal) was 32.5 µM, the TGI (A498 renal) was 53.7 µM and the TGI (A549 NSCLC) was 93.9 µM. It also gave a TGI (ACHN renal) of 85.2 µM, a TGI (BT-549 breast) of 64.7 µM and a TGI (CAKI-1 renal) of 98.2 µM. For the same compound, the TGI (CCRF-CEM leukemia) was over 100 µM, the TGI (COLO 205 colon) was over 100 µM and the TGI (DU-145 prostate) was over 100 µM. It also gave a TGI (EKVX NSCLC) of over 100 µM, a TGI (HCC-2998 colon) of 40.6 µM and a TGI (HCT-116 colon) of 34.1 µM. For the same compound, the TGI (HCT-15 colon) was 39.9 µM, the TGI (HL-60(TB) leukemia) was 35.3 µM and the TGI (HOP-62 NSCLC) was 40 µM. The TGI (HOP-92 NSCLC) was 59.3 µM, the TGI (HS 578T breast) was 58.9 µM and the TGI (HT29 colon) was over 100 µM. The TGI (IGROV1 ovarian) was 14.1 µM, the TGI (K-562 leukemia) was 76.1 µM and the TGI (KM12 colon) was 36.9 µM. The TGI (LOX IMVI melanoma) was 32.8 µM, the TGI (M14 melanoma) was 33.7 µM and the TGI (MALME-3M melanoma) was 38.6 µM. For the same compound, the TGI (MCF7 breast) was 37.2 µM, the TGI (MDA-MB-231 breast) was 34.1 µM and the TGI (MDA-MB-435) was 33.9 µM. It also gave a TGI (MDA-N) of 39.1 µM, a TGI (MOLT-4 leukemia) of over 100 µM and a TGI (NCI-H226 lung) of 40.2 µM. It also gave a TGI (NCI-H23 lung) of over 100 µM, a TGI (NCI-H460 lung) of 56.5 µM and a TGI (NCI-H522 lung) of 0.166 µM. For the same compound, the TGI (NCI/ADR-RES ovarian) was over 100 µM, the TGI (OVCAR-3 ovarian) was 97.9 µM and the TGI (OVCAR-4 ovarian) was 79.9 µM. For the same compound, the TGI (OVCAR-5 ovarian) was 55.1 µM, the TGI (OVCAR-8 ovarian) was 39.2 µM and the TGI (PC-3 prostate) was over 100 µM. For the same compound, the TGI (RXF 393 renal) was 35.6 µM, the TGI (SF-268 CNS) was 55.3 µM and the TGI (SF-295 CNS) was 66 µM. The TGI (SF-539 CNS) was 32.1 µM, the TGI (SK-MEL-2 melanoma) was 1.07 µM and the TGI (SK-MEL-28 melanoma) was 52 µM. The TGI (SK-MEL-5 melanoma) was 34.9 µM, the TGI (SK-OV-3 ovarian) was over 100 µM and the TGI (SN12C renal) was 50.8 µM. The TGI (SNB-19 CNS) was over 100 µM, the TGI (SNB-75 CNS) was over 100 µM and the TGI (SR leukemia) was over 100 µM. It also gave a TGI (SW-620 colon) of over 100 µM, a TGI (T-47D breast) of 63.3 µM and a TGI (TK-10 renal) of 63.8 µM. For the same compound, the TGI (U251 CNS) was 32.7 µM, the TGI (UACC-257 melanoma) was 49.2 µM and the TGI (UACC-62 melanoma) was 32.5 µM. It also gave a TGI (UO-31 renal) of 6.34 µM.

From PubChem BioAssay (NCI)
